Laboratory results reported in ChEMBL document CHEMBL5625215, “Antiproliferative activity of meso-substituted BODIPY photocages: Effect of electrophiles vs singlet oxygen” (Eur J Med Chem, 2023).
Activity calls are given as the source filed them. The calls are words filed in the database; no cut-off is given here.

What was measured:
[1] = system: NCI-H460; experiment: Antiproliferative activity against human NCI-H460 cells assessed as inhibition of cell growth incubated for 72 hrs under dark condition by MTT assay; type: functional, cell-based; details: NCI-H460, 72 h
[2] = system: HCT-116; experiment: Antiproliferative activity against human HCT-116 cells assessed as inhibition of cell growth incubated for 72 hrs under photoirradiation with 6 cool white lamps for 15 mins at 4,28 and 52 hrs after compound addition by MTT assay; type: functional, cell-based; details: HCT-116, light or radiation study
[3] = Drug uptake in HEK293T cells by fluorescence microscopic analysis; type: ADME, cell-based; details: human, hek-293t
[4] = Induction of singlet oxygen production in CH3CN assessed as singlet oxygen quantum yield at 450 nm under photoirradiation with visible light and measured after 15 to 60 sec by DPBF based assay; type: functional; details: time 15-60 sec
[5] = system: HEK-293T; experiment: Induction of apoptosis in HEK293T cells assessed as dye bleaching irradiated with visible light by Hoechst 33342 staining based confocal microscopic analysis; type: toxicity, cell-based; details: human
[6] = Cytotoxicity against HEK293T cells assessed as inhibition of cell growth incubated for 72 hrs under dark condition by MTT assay; type: toxicity, cell-based, HEK-293T; details: human
[7] = system: NCI-H460; experiment: Induction of cell death in human NCI-H460 cells assessed as shrinkage of nuclear volume preincubated for 30 mins followed by light irradiation for 15 to 30 mins by Hoechst 33342 staining based confocal microscopic analysis; type: functional; details: time 45-60 min
[8] = Drug localization in lipid droplets of human NCI-H460 cells incubated for 30 mins by Hoechst 33342 staining based confocal microscopic analysis; type: ADME, subcellular, Lipid droplet; details: nci-h460, 0.5 h
[9] = system: NCI-H460; experiment: Induction of cell death in human NCI-H460 cells assessed as membrane blebbing preincubated for 30 mins followed by light irradiation for 15 to 30 mins by Hoechst 33342 staining based confocal microscopic analysis; type: functional; details: time 45-60 min
[10] = Cytotoxicity against human HaCaT cells assessed as inhibition of cell growth incubated for 72 hrs under photoirradiation with 6 cool white lamps for 15 mins at 4,28 and 52 hrs after compound addition by MTT assay; type: toxicity, cell-based
[11] = Fluorescence property of compound in CH3CN assessed as fluorescence quantum yield by spectrofluorometric analysis; type: physicochemical
[12] = Emission property of compound in CH3CN assessed as maximal wavelength by […]; type: physicochemical
[13] = system: NCI-H460; experiment: Induction of cell death in human NCI-H460 cells assessed as dye bleaching preincubated for 30 mins followed by light irradiation for 15 to 30 mins by Hoechst 33342 staining based confocal microscopic analysis; type: functional; details: time 45-60 min
[14] = Induction of singlet oxygen production in CH3CN assessed as decrease in fluorescence intensity at 450 nm under photoirradiation with visible light and measured after 45 sec by DPBF based assay relative to control; type: functional; set-up: scale not given: the % may be the effect or the level left
[15] = Cytotoxicity against human HaCaT cells assessed as inhibition of cell growth incubated for 72 hrs under dark condition by MTT assay; type: toxicity, cell-based
[16] = system: MCF7; experiment: Antiproliferative activity against human MCF7 cells assessed as inhibition of cell growth incubated for 72 hrs under dark condition by MTT assay; type: functional, cell-based; details: MCF7, 72 h
[17] = system: NCI-H460; experiment: Induction of cell death in human NCI-H460 cells assessed as cell shrinkage preincubated for 30 mins followed by light irradiation for 15 to 30 mins by Hoechst 33342 staining based confocal microscopic analysis; type: functional; details: time 45-60 min
[18] = Drug localization in cytoplasm of human NCI-H460 cells incubated for 30 mins by Hoechst 33342 staining based confocal microscopic analysis; type: ADME, subcellular; details: nci-h460, 0.5 h
[19] = Drug localization in endoplasmic reticulum of human NCI-H460 cells incubated for 30 mins by Hoechst 33342 staining based confocal microscopic analysis; type: ADME, subcellular; details: nci-h460, 0.5 h
[20] = Drug localization in nuclear membrane of human NCI-H460 cells incubated for 30 mins by Hoechst 33342 staining based confocal microscopic analysis; type: ADME, cell membranes; details: nci-h460, 0.5 h
[21] = Drug localization in golgi body of human NCI-H460 cells incubated for 30 mins by Hoechst 33342 staining based confocal microscopic analysis; type: ADME, subcellular; details: nci-h460, 0.5 h
[22] = system: HCT-116; experiment: Antiproliferative activity against human HCT-116 cells assessed as inhibition of cell growth incubated for 72 hrs under dark condition by MTT assay; type: functional, cell-based; details: HCT-116, 72 h
[23] = Absorption property of compound in CH3CN assessed as maximal wavelength by UV-vis spectrophotometer; type: physicochemical
[24] = system: HEK-293T; experiment: Induction of apoptosis in HEK293T cells assessed as cell death irradiated with visible light by Hoechst 33342 staining based confocal microscopic analysis; type: toxicity; details: human
[25] = system: MCF7; experiment: Antiproliferative activity against human MCF7 cells assessed as inhibition of cell growth incubated for 72 hrs under photoirradiation with 6 cool white lamps for 15 mins at 4,28 and 52 hrs after compound addition by MTT assay; type: functional, cell-based; details: MCF7, light or radiation study
[26] = Induction of singlet oxygen production in CH3CN assessed as decrease in fluorescence intensity at 450 nm under photoirradiation with visible light and measured after 15 sec by DPBF based assay relative to control; type: functional; set-up: scale not given: the % may be the effect or the level left
[27] = system: NCI-H460; experiment: Antiproliferative activity against human NCI-H460 cells assessed as inhibition of cell growth incubated for 72 hrs under photoirradiation with 6 cool white lamps for 15 mins at 4,28 and 52 hrs after compound addition by MTT assay; type: functional, cell-based; details: NCI-H460, light or radiation study
[28] = Induction of singlet oxygen production in CH3CN assessed as decrease in fluorescence intensity at 450 nm under photoirradiation with visible light and measured after 30 sec by DPBF based assay relative to control; type: functional; set-up: scale not given: the % may be the effect or the level left
[29] = Absorption property of compound in CH3CN assessed as maximal molar absorption coefficient by UV-vis spectrophotometer; type: physicochemical
[30] = Cytotoxicity against HEK293T cells assessed as inhibition of cell growth incubated for 72 hrs under photoirradiation with 6 cool white lamps for 15 mins at 4,28 and 52 hrs after compound addition by MTT assay; type: toxicity, cell-based, HEK-293T; details: human
[31] = system: NCI-H460; experiment: Induction of cell death in human NCI-H460 cells assessed as shrinkage of nuclear volume at 1 uM preincubated for 30 mins followed by light irradiation for 15 to 30 mins by Hoechst 33342 staining based confocal microscopic analysis; type: functional; details: time 45-60 min
[32] = system: HCT-116; experiment: Induction of ROS generation in human HCT-116 cells assessed as increase in oxidative stress at 5 uM preincubated with compound for 1 hrs followed by photoirradiation with 6 cool white lamps by DCFH-DA staining based fluorescence analysis; type: functional, cell-based
[33] = Drug localization in cytoplasm of human NCI-H460 cells at 10 uM incubated for 30 mins by Hoechst 33342 staining based confocal microscopic analysis; type: ADME, subcellular; details: nci-h460, 0.5 h
[34] = system: HCT-116; experiment: Induction of ROS generation in human HCT-116 cells at 5 uM incubated for 1 hrs under dark condition by DCFH-DA staining based fluorescence analysis; type: functional, cell-based
[35] = system: NCI-H460; experiment: Induction of cell death in human NCI-H460 cells assessed as cell shrinkage at 1 uM preincubated for 30 mins followed by light irradiation for 15 to 30 mins by Hoechst 33342 staining based confocal microscopic analysis; type: functional; details: time 45-60 min
[36] = Drug localization in golgi body of human NCI-H460 cells at 10 uM incubated for 30 mins by Hoechst 33342 staining based confocal microscopic analysis; type: ADME, subcellular; details: nci-h460, 0.5 h
[37] = Drug localization in endoplasmic reticulum of human NCI-H460 cells at 10 uM incubated for 30 mins by Hoechst 33342 staining based confocal microscopic analysis; type: ADME, subcellular; details: nci-h460, 0.5 h
[38] = Drug localization in lipid droplets of human NCI-H460 cells at 10 uM incubated for 30 mins by Hoechst 33342 staining based confocal microscopic analysis; type: ADME, subcellular, Lipid droplet; details: nci-h460, 0.5 h
[39] = system: NCI-H460; experiment: Induction of cell death in human NCI-H460 cells assessed as dye bleaching at 1 uM preincubated for 30 mins followed by light irradiation for 15 to 30 mins by Hoechst 33342 staining based confocal microscopic analysis; type: functional; details: time 45-60 min
[40] = system: NCI-H460; experiment: Induction of cell death in human NCI-H460 cells assessed as membrane blebbing at 1 uM preincubated for 30 mins followed by light irradiation for 15 to 30 mins by Hoechst 33342 staining based confocal microscopic analysis; type: functional; details: time 45-60 min
[41] = Drug localization in nuclear membrane of human NCI-H460 cells at 10 uM incubated for 30 mins by Hoechst 33342 staining based confocal microscopic analysis; type: ADME, cell membranes; details: nci-h460, 0.5 h
[42] = Induction of singlet oxygen production in CH3CN assessed as decrease in fluorescence intensity at 455 nm under photoirradiation with visible light and measured after 1 min by DPBF based assay relative to control; type: functional; set-up: scale not given: the % may be the effect or the level left
[43] = Induction of singlet oxygen production in CH3CN assessed as singlet oxygen quantum yield; type: functional
[44] = Induction of singlet oxygen production in CH3CN assessed as decrease in fluorescence intensity at 455 nm under photoirradiation with visible light and measured after 45 sec by DPBF based assay relative to control; type: functional; set-up: scale not given: the % may be the effect or the level left
[45] = Induction of singlet oxygen production in CH3CN assessed as decrease in fluorescence intensity at 455 nm under photoirradiation with visible light and measured after 15 sec by DPBF based assay relative to control; type: functional; set-up: scale not given: the % may be the effect or the level left
[46] = Induction of singlet oxygen production in CH3CN assessed as decrease in fluorescence intensity at 455 nm under photoirradiation with visible light and measured after 30 sec by DPBF based assay relative to control; type: functional; set-up: scale not given: the % may be the effect or the level left
[47] = Fluorescence property of compound in CH3OH assessed as fluorescence quantum yield; type: physicochemical

Structure (SMILES) | IC50 [1] | IC50 [2] | Drug uptake [3] | Drug uptake [8] | Activity [11] | Activity [12] | IC50 [16] | IC50 [22] | Activity [23] | IC50 [25] | IC50 [27] | Activity [29] | Activity [5] | IC50 at 72 h [6] | Activity [7] | Activity [9] | IC50 at 72 h [10] | Activity [13] | IC50 at 72 h [15] | Activity [24] | other results
COc1cccc(COC(C)=O)c1OCC1=C2C(C)=C(Br)C(C)=[N+]2[B-](C)(C)n2c(C)c(Br)c(C)c21 | > 100000 nM | 190 nM | Active | Active | 0.034 | 559 nm | ≥ 100000 nM | ≥ 100000 nM | 530 nm | 150 nM | 230 nM | 59622 M⁻¹ cm⁻¹ | Toxic | ≥ 100000 nM | Active | Active | 300 nM | Active | > 100000 nM | Toxic | Activity [4]: 0.73; Activity [14]: 99.9%; Activity [17]: Active; Drug uptake [18]: Active; Drug uptake [19]: Active; Drug uptake [20]: Active; Drug uptake [21]: Active; Activity [26]: 63%; Activity [28]: 91.8%; IC50 at 72 h [30]: 300 nM
C1=Cc2nc1c(-c1ccccc1)c1ccc([nH]1)c(-c1ccccc1)c1nc(c(-c3ccccc3)c3ccc([nH]3)c2-c2ccccc2)C=C1 |  |  |  |  |  |  |  |  |  |  |  |  |  |  |  |  |  |  |  |  | Activity [42]: 95.1%; Activity [43]: 0.5; Activity [44]: 84.2%; Activity [45]: 43.3%; Activity [46]: 63%
CCN(CC)c1ccc2c(-c3ccccc3C(=O)O)c3ccc(=[N+](CC)CC)cc-3oc2c1.[Cl-] [RHODAMINE] |  |  |  |  |  |  |  |  |  |  |  |  |  |  |  |  |  |  |  |  | Activity [47]: 0.66

The next lines start with results.

IC50 [1] | IC50 [2] | Drug uptake [3] | Drug uptake [8] | Activity [11] | Activity [12] | IC50 [16] | IC50 [22] | Activity [23] | IC50 [25] | IC50 [27] | Activity [29] | Structure (SMILES) | Activity [5] | IC50 at 72 h [6] | Activity [7] | Activity [9] | IC50 at 72 h [10] | Activity [13] | IC50 at 72 h [15] | Activity [24] | other results
> 100000 nM | 170 nM | Active |  | 0.32 | 517 nm | > 100000 nM | > 100000 nM | 505 nm | 150 nM | 170 nM | 88894 M⁻¹ cm⁻¹ | CC1=CC(C)=[N+]2C1=C(CO)c1c(C)cc(C)n1[B-]2(C)C | Toxic | 38000 nM |  |  | 300 nM |  | 68000 nM | Toxic | Activity [31]: Active; Activity [32]: Active; Drug uptake [33]: Active; Activity [34]: inactive; Activity [35]: Active; Drug uptake [36]: Active; Drug uptake [37]: Active; Drug uptake [38]: Active; Activity [39]: Active; Activity [40]: Active; Drug uptake [41]: Active; IC50 at 72 h [30]: 300 nM
33000 nM | 160 nM | Active | Active | 0.043 | 558 nm | 18000 nM | 25000 nM | 531 nm | 170 nM | 190 nM | 37724 M⁻¹ cm⁻¹ | CC(=O)OCc1ccccc1OCC1=C2C(C)=C(Br)C(C)=[N+]2[B-](C)(C)n2c(C)c(Br)c(C)c21 | Toxic |  | Active | Active |  | Active |  | Toxic | Activity [17]: Active; Drug uptake [18]: Active; Drug uptake [19]: Active; Drug uptake [20]: Active; Drug uptake [21]: Active
